Where “and” joins values, the source holds several entries; their conditions need not be identical. Equal values may be shown once. Toxic doses and inconclusive results are not listed. Rule as the data show it: active = T/C of 150% or more; inactive = T/C below 125%. Square brackets hold non-standard residues; d marks the D form. Peptide text beside a SMILES is read from it. * marks the point of attachment. ξ: configuration not given here. Boc = CC(C)(C)OC(=O)*; ξP = O=C(O)C1CCCN1
System: L1210 leukemia ip in BDF1 mice, survival T/C
Experiment: NCI In Vivo Anticancer Drug Screen. Data for tumor model L1210 Leukemia (intraperitoneal) in B6D2F1 (BDF1) mice
Conditions: endpoint: mean survival time, higher = longer survival
Procedure, shortened: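 Tumor was transplanted into mice, which were then dosed with test compound or vehicle alone. Survival was recorded for each group, and the treated figure was expressed relative to the control figure.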

[1] = dose: 100.0 mg/kg/injection, schedule: Q04DX003 (ip), vehicle: Klucel (hydroxypropylcellulose) (HPC)
[2] = dose: 200.0 mg/kg/injection, schedule: Q04DX003 (ip), vehicle: Klucel (hydroxypropylcellulose) (HPC)
[3] = dose: 400.0 mg/kg/injection, schedule: Q04DX003 (ip), vehicle: Klucel (hydroxypropylcellulose) (HPC)
[4] = dose: 100.0 mg/kg/injection, schedule: Q01DX009 (ip), vehicle: Klucel (hydroxypropylcellulose) (HPC)
[5] = dose: 200.0 mg/kg/injection, schedule: Q01DX009 (ip), vehicle: Klucel (hydroxypropylcellulose) (HPC)
[6] = dose: 400.0 mg/kg/injection, schedule: Q01DX009 (ip), vehicle: Klucel (hydroxypropylcellulose) (HPC)
[7] = dose: 100.0 mg/kg/injection, schedule: Q04DX002 (ip), vehicle: Klucel (hydroxypropylcellulose) (HPC)
[8] = dose: 200.0 mg/kg/injection, schedule: Q04DX002 (ip), vehicle: Klucel (hydroxypropylcellulose) (HPC)
[9] = dose: 400.0 mg/kg/injection, schedule: Q04DX002 (ip), vehicle: Klucel (hydroxypropylcellulose) (HPC)
[10] = dose: 100.0 mg/kg/injection, schedule: Q01DX009 (ip), vehicle: saline with Tween-80
[11] = dose: 200.0 mg/kg/injection, schedule: Q01DX009 (ip), vehicle: saline with Tween-80
[12] = dose: 400.0 mg/kg/injection, schedule: Q01DX009 (ip), vehicle: saline with Tween-80
[13] = dose: 100.0 mg/kg/injection, schedule: Q01DX001 (ip), vehicle: saline
[14] = dose: 100.0 mg/kg/injection, schedule: Q04DX003 (ip), vehicle: saline with Tween-80
[15] = dose: 200.0 mg/kg/injection, schedule: Q01DX001 (ip), vehicle: saline
[16] = dose: 200.0 mg/kg/injection, schedule: Q04DX003 (ip), vehicle: saline with Tween-80
[17] = dose: 400.0 mg/kg/injection, schedule: Q01DX001 (ip), vehicle: saline
[18] = dose: 400.0 mg/kg/injection, schedule: Q04DX003 (ip), vehicle: saline with Tween-80
[19] = dose: 400.0 mg/kg/injection, schedule: Q04DX002 (ip), vehicle: saline with Tween-80

Measured: T/C

CC(=O)[C@H]1CC[C@H]2[C@@H]3CCC4=CC(=O)[C@H](C)C[C@]4(C)[C@@]3(F)C(=O)C[C@]12C
inactive: dose: 15.0 mg/kg/injection, schedule: Q01DX Z (sc), vehicle: steriod suspending solution 98 % of control | dose: 30.0 mg/kg/injection, schedule: Q01DX Z (sc), vehicle: steriod suspending solution 96 % of control | dose: 60.0 mg/kg/injection, schedule: Q01DX Z (sc), vehicle: steriod suspending solution 101 % of control and 113 % of control | dose: 100.0 mg/kg/injection, schedule: Q01DX009 (sc), vehicle: steriod suspending solution 116 % of control | dose: 100.0 mg/kg/injection, schedule: Q04DX003 (sc), vehicle: steriod suspending solution 98 % of control | dose: 120.0 mg/kg/injection, schedule: Q01DX Z (sc), vehicle: steriod suspending solution 105 % of control | dose: 200.0 mg/kg/injection, schedule: Q01DX009 (sc), vehicle: steriod suspending solution 110 % of control | dose: 200.0 mg/kg/injection, schedule: Q04DX003 (sc), vehicle: steriod suspending solution 98 % of control | dose: 240.0 mg/kg/injection, schedule: Q01DX Z (sc), vehicle: steriod suspending solution 103 % of control | dose: 400.0 mg/kg/injection, schedule: Q01DX009 (sc), vehicle: steriod suspending solution 111 % of control | dose: 400.0 mg/kg/injection, schedule: Q04DX003 (sc), vehicle: steriod suspending solution 98 % of control

COCc1ncc2cnccn12
inactive: dose: 25.0 mg/kg/injection, schedule: Q01DX009 (ip), vehicle: saline 90 % of control | dose: 50.0 mg/kg/injection, schedule: Q01DX009 (ip), vehicle: saline 103 % of control | dose: 100.0 mg/kg/injection, schedule: Q01DX009 (ip), vehicle: saline 98 % of control and 103 % of control and 91 % of control | dose: 200.0 mg/kg/injection, schedule: Q01DX009 (ip), vehicle: saline 93 % of control

S=C(c1ccc2ccccc2n1)N1CCOCC1
inactive: [1] 100 % of control | [2] 91 % of control | [3] 105 % of control

Cc1cc(C)c(NC(=O)Nc2ccc(C(Cl)(Cl)Cl)cc2)c(C)c1
inactive: [4] 95 % of control | [5] 98 % of control | [6] 94 % of control

N#CCc1cc(Cl)ccc1OCC(=O)O
inactive: [7] 95 % of control | [8] 103 % of control | [9] 100 % of control

CC(=O)Nc1ccccc1C(=O)O
inactive: [10] 100 % of control | [11] 97 % of control | [12] 100 % of control

O=C(c1ccc(Cl)cc1)C(O)c1ccc(Cl)cc1 (centres undefined)
inactive: dose: 50.0 mg/kg/injection, schedule: Q01DX001 (ip), vehicle: saline 96 % of control | [13] 90 % of control | [14] 90 % of control | [15] 96 % of control | [16] 92 % of control | [17] 100 % of control | [18] 86 % of control

COC(=O)CNC(=O)C1CCCN1C(=O)OC(C)(C)C (centres undefined) (Boc-[ξP]-Gly-OMe)
inactive: [10] 100 % of control | [11] 100 % of control | [12] 90 % of control

Nc1cccn2cnnc12
inactive: [13] 103 % of control | [15] 101 % of control | [17] 97 % of control

C[CH2][Ge]1([CH2]C)[CH2]CC2(C[CH2]1)CN(CCCN(C)C)CN2
inactive: dose: 100.0 mg/kg/injection, schedule: Q04DX002 (ip), vehicle: saline 103 % of control

CCOC(=O)c1cnc(N(C)CC(=O)O)[nH]c1=O
inactive: [7] 94 % of control | [8] 94 % of control | [9] 107 % of control

CC(=O)Oc1ccc2c(=O)c(-c3ccccc3)c(C)oc2c1
inactive: dose: 100.0 mg/kg/injection, schedule: Q01DX001 (ip), vehicle: other 108 % of control | [14] 100 % of control | dose: 200.0 mg/kg/injection, schedule: Q01DX001 (ip), vehicle: other 111 % of control | [16] 108 % of control | dose: 400.0 mg/kg/injection, schedule: Q01DX001 (ip), vehicle: other 94 % of control | [18] 105 % of control

CC1CCN(c2ccc([N+](=O)[O-])cc2[N+](=O)[O-])CC1
inactive: [4] 99 % of control | [1] 104 % of control | [5] 99 % of control | [2] 98 % of control | [3] 103 % of control

CCOC(=O)C(Cc1ccc(Cl)c(Cl)c1)(Cc1ccc(Cl)c(Cl)c1)C(=O)OCC
inactive: [10] 104 % of control | [14] 88 % of control | [11] 97 % of control | [16] 89 % of control | [12] 95 % of control | [18] 105 % of control

O=c1[nH]cnc2c1ncn2C1CCC(CO)C1 (centres undefined)
inactive: dose: 100.0 mg/kg/injection, schedule: Q01DX001 (ip), vehicle: carboxymethylcellulose (CMC) 100 % of control | dose: 177.0 mg/kg/injection, schedule: Q01DX001 (ip), vehicle: carboxymethylcellulose (CMC) 98 % of control | dose: 200.0 mg/kg/injection, schedule: Q01DX001 (ip), vehicle: carboxymethylcellulose (CMC) 96 % of control | dose: 266.0 mg/kg/injection, schedule: Q01DX001 (ip), vehicle: carboxymethylcellulose (CMC) 98 % of control | dose: 600.0 mg/kg/injection, schedule: Q01DX001 (ip), vehicle: carboxymethylcellulose (CMC) 100 % of control

C/C(=N/Nc1ccc([N+](=O)[O-])cc1)c1ccncc1
inactive: dose: 50.0 mg/kg/injection, schedule: Q01DX009 (ip), vehicle: Klucel (hydroxypropylcellulose) (HPC) 101 % of control | [4] 111 % of control | [5] 89 % of control | [6] 105 % of control

CC(=O)N(c1ccncc1)c1ccc(NC(=O)c2ccc(N3C(=O)c4ccccc4C3=O)cc2[N+](=O)[O-])cc1
inactive: dose: 25.0 mg/kg/injection, schedule: Q04DX002 (ip), vehicle: saline with Tween-80 93 % of control and 102 % of control | [19] 96 % of control and 88 % of control

C=CCC(C(C)=O)C(=O)OCC (centres undefined)
inactive: [4] 100 % of control | [1] 93 % of control | [5] 96 % of control | [2] 104 % of control | [6] 96 % of control | [3] 97 % of control

COc1ccc(/C=N/N=C(N)N)cc1S(=O)(=O)O
inactive: dose: 15.0 mg/kg/injection, schedule: Q01DX Z (ip), vehicle: saline 95 % of control | dose: 30.0 mg/kg/injection, schedule: Q01DX Z (ip), vehicle: saline 90 % of control | dose: 60.0 mg/kg/injection, schedule: Q01DX Z (ip), vehicle: saline 88 % of control | dose: 60.0 mg/kg/injection, schedule: Q01DX Z (oral), vehicle: saline 95 % of control | dose: 120.0 mg/kg/injection, schedule: Q01DX Z (ip), vehicle: saline 92 % of control | dose: 120.0 mg/kg/injection, schedule: Q01DX Z (oral), vehicle: saline 97 % of control | dose: 240.0 mg/kg/injection, schedule: Q01DX Z (oral), vehicle: saline 97 % of control | dose: 480.0 mg/kg/injection, schedule: Q01DX Z (oral), vehicle: saline 98 % of control

O=c1o[nH]c(-c2ccccc2)c1-c1ccccc1
inactive: dose: 1.56 mg/kg/injection, schedule: Q04DX003 (ip), vehicle: saline 98 % of control | dose: 3.12 mg/kg/injection, schedule: Q04DX003 (ip), vehicle: saline 102 % of control | dose: 6.25 mg/kg/injection, schedule: Q04DX003 (ip), vehicle: saline 102 % of control | dose: 12.5 mg/kg/injection, schedule: Q04DX003 (ip), vehicle: saline 94 % of control | [16] 93 % of control

CCOCC(C(=O)OCC)C(=O)OCC
inactive: [10] 111 % of control | [11] 111 % of control | [12] 97 % of control

O=C(Nc1ccc(F)cc1)Nc1ccc(Cl)cc1[N+](=O)[O-]
inactive: dose: 50.0 mg/kg/injection, schedule: Q01DX009 (ip), vehicle: saline with Tween-80 94 % of control and 95 % of control | dose: 100.0 mg/kg/injection, schedule: Q01DX001 (ip), vehicle: saline with Tween-80 100 % of control | dose: 100.0 mg/kg/injection, schedule: Q04DX002 (ip), vehicle: saline with Tween-80 102 % of control and 92 % of control | [14] 100 % of control | dose: 200.0 mg/kg/injection, schedule: Q01DX001 (ip), vehicle: saline with Tween-80 95 % of control | dose: 200.0 mg/kg/injection, schedule: Q04DX002 (ip), vehicle: saline with Tween-80 95 % of control and 101 % of control | [16] 97 % of control | dose: 400.0 mg/kg/injection, schedule: Q01DX001 (ip), vehicle: saline with Tween-80 92 % of control | [19] 93 % of control and 98 % of control | [18] 94 % of control

Reference: PubChem BioAssay AID248 (DTP/NCI, 2004)
